Laboratory results as given in patent US20060099676A1, “Mammalian genes involved in rapamycin resistance and tumorgenesis: rapr6 genes” (priority 2002, published 2006).

Test system: N2a cells
Assay: MTT proliferation assay: rapamycin mediated cell growth inhibition of N2a cells
Assay type: cell-based, mouse
Settings: FIG. 7
Description: In a preferred embodiment, an MTT proliferation assay (see, e.g., van de Loosdrechet, et al., 1994, J. Immunol. Methods 174: 311-320; Ohno et al., 1991, J. Immunol. Methods 145:199-203; Ferrari et al., 1990, J. Immunol. Methods 131: 165-172; Alley et al., 1988, Cancer Res. 48: 589-601; Carmichael et al., 1987, Cancer Res. 47:936-942; Gerlier et al., 1986, J. Immunol. Methods 65:55-63; Mosmann, 1983, J. Immunological Methods 65:55-63) is used to screen for a candidate agent in conjunction with rapamycin to inhibit the growth of rapamycin resistant cells. The cells are treated with chosen concentrations of the candidate agent and rapamycin for 4 to 72 hours. The cells are then incubated with a suitable amount of 3-(4,5-dimethylthiazol-2-yl)-2,5-diphenyitetrazoiium bromide (MTT) for 1-8 hours such that viable cells convert MTT into an intracellular deposit of insoluble formazan. After removing the excess MTT contained in the supernatant, a suitable MTT solvent, e.g., a DMSO solution, is added to dissolved the formazan. The concentration of […], which is proportional to the number of viable cells, is then measured by determining the optical density at 570 nm. A plurality of different concentrations of the candidate agent can be assayed to allow the determination of the concentrations of the candidate agent and rapamycin which causes 50% inhibition. […]

CO[C@H]1C[C@@H]2CC[C@@H](C)[C@@](O)(O2)C(=O)C(=O)N2CCCC[C@H]2C(=O)O[C@H]([C@H](C)C[C@@H]2CC[C@@H](O)[C@H](OC)C2)CC(=O)[C@H](C)/C=C(\C)[C@@H](O)[C@@H](OC)C(=O)[C@H](C)C[C@H](C)/C=C/C=C/C=C/1C [rapamycin, 9,10,12,13,14,21,22,23,24,25,26,27, 32,33,34,34a-hexadecahydro-9,27-dihydroxy-3-[2-(4-hydroxy-3-methoxycyclohexyl)-1-methylethyl]-10,21-dimethoxy-6,8,12,14,20,26-hexamethyl-23,27-epoxy-3H-pyrido[2,1-c][1,4]oxaazacyclohentricontine-1,5,11,28,29(4H,6H,31H)-pentone]
rapamycin concentration at which the growth of N2a cells is completely inhibited (N2a cell line): ≥ 1 µM | concentration at which N2a cells are sensitive to rapamycin mediated cell growth inhibition (mouse neuroblastoma N2a cells, MTT assay): 10 nM
